Patent US8592379B2, “Metastin derivative and use thereof” (Kyoto University, priority 2008, dated 2013)
Where two headings read alike, the source gives them in different places.

Experiments:
[1] = Half-life of the compound in the serum; conditions: for half-life: serum, t1/2, in the serum; for t1/2: in the serum
Procedure: (§2) In addition, the half-life (t1/2) of the compound in the serum was measured.

GPR54 [2] = target: T1, GPR54 (Homo sapiens (Human), UniProt Q969F8); assay: Flipr assay of GPR54 agonist activity (increase in intracellular Ca2+ ion concentration); format: cell-based; conditions: for activity at 0.01 µM / % Activity: signal upon addition of 10 nM compound, based on signal of 1 μM kisspeptin-10 as 100%
T1 sequence (Q969F8 whole entry): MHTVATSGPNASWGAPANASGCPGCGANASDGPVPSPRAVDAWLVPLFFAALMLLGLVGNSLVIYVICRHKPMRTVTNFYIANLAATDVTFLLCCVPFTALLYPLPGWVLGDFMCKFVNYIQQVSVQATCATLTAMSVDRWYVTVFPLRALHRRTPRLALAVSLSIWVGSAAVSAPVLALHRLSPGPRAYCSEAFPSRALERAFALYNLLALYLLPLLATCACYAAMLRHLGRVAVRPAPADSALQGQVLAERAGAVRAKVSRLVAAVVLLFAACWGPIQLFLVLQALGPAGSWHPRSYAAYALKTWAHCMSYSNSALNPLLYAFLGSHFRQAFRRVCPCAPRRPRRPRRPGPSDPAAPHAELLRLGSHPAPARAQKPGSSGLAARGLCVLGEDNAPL
Procedure: The GPR54 agonist activity of the obtained compounds was evaluated by Flipr assay measuring increase in the intracellular Ca^2+ ion concentration caused by stimulation of receptor as a signal.

MMP9 = MMP9 (Homo sapiens (Human), UniProt P14780); assay: Resistance to decomposition by matrix protease MMP9; format: in vitro ADME; conditions: for retention after treatment with MMP9: 72 hr, in words
Text: (§1) Furthermore, the resistance of the present invention to the decomposition by matrix protease (MMP) was examined. […] However, only about 50% of compound 1 was retained.

[3] = serum
Procedure: as §2

MMP2 = MMP2 (Homo sapiens (Human), UniProt P08253); assay: Resistance to decomposition by matrix protease MMP2; format: in vitro ADME; conditions: for retention after treatment with MMP2: 48 hr, in words
Text: as §1

GPR54 [4] = target: T1, GPR54; assay: Binding inhibitory test using membrane fraction of human GPR54-expressing cell and [125I]-Metastin 40-54
Procedure: A binding inhibitory test using membrane fraction of human GPR54-expressing cell and [^125I]-Metastin 40-54 was performed, and IC50 value was calculated (see non-patent document 2).

CC(C)C/C(=C\[C@H](O)CNC(=O)[C@H](Cc1ccccc1)NC(=O)c1ccc(F)cc1)C(=O)N[C@@H](CCCN=C(N)N)C(=O)N[C@@H](Cc1c[nH]c2ccccc12)C(N)=O [Compound 23]
half-life [1]: 1100 h | activity at 0.01 µM (GPR54 [2]): 0.7% | retention after treatment with MMP9 (MMP9): retained even after 72 hr with scarce decomposition

CC(C)C/C(=C\[C@@H](O)CNC(=O)[C@H](Cc1ccccc1)NC(=O)c1ccc(F)cc1)C(=O)N[C@@H](CCCNC(=N)N)C(=O)N[C@@H](Cc1c[nH]c2ccccc12)C(N)=O [Compound 22]
half-life [1]: 60 h | activity at 0.01 µM (GPR54 [2]): 18.7%

CC(C)C/C(=C\CCNC(=O)[C@H](Cc1ccccc1)NC(=O)c1ccc(F)cc1)C(=O)N[C@@H](CCCNC(=N)N)C(=O)N[C@@H](Cc1c[nH]c2ccccc12)C(N)=O [Compound 21]
half-life [1]: 52 h | activity at 0.01 µM (GPR54 [2]): 49.3%

CC(C)CC(C[C@@H](O)CNC(=O)[C@H](Cc1ccccc1)NC(=O)c1ccc(F)cc1)C(=O)N[C@@H](CCCNC(=N)N)C(=O)N[C@@H](Cc1c[nH]c2ccccc12)C(N)=O (single isomer, unassigned) [Compound 24b]
t1/2 [1]: 54 h | % Activity (GPR54 [2]): 53.9%

CC(C)CC(C[C@H](O)CNC(=O)[C@H](Cc1ccccc1)NC(=O)c1ccc(F)cc1)C(=O)N[C@@H](CCCNC(=N)N)C(=O)N[C@@H](Cc1c[nH]c2ccccc12)C(N)=O (single isomer, unassigned) [Compound 25a]
t1/2 [1]: 120 h | % Activity (GPR54 [2]): 13.8%

CC(C)C[C@H](CCCNC(=O)[C@H](Cc1ccccc1)NC(=O)c1ccc(F)cc1)C(=O)N[C@@H](CCCNC(=N)N)C(=O)N[C@@H](Cc1c[nH]c2ccccc12)C(N)=O [Compound 20]
half-life [1]: 45 h | activity at 0.01 µM (GPR54 [2]): 70.3%

CC(C)CC(C[C@@H](O)CNC(=O)[C@H](Cc1ccccc1)NC(=O)c1ccc(F)cc1)C(=O)N[C@@H](CCCNC(=N)N)C(=O)N[C@@H](Cc1c[nH]c2ccccc12)C(N)=O (single isomer, unassigned) [Compound 24a]
t1/2 [1]: 470 h | % Activity (GPR54 [2]): 0.6%

CC(C)C[C@H](NC(=O)CNC(=O)[C@H](Cc1ccccc1)NC(=O)c1ccc(F)cc1)C(=O)N[C@@H](CCCN=C(N)N)C(=O)N[C@@H](Cc1c[nH]c2ccccc12)C(N)=O [Compound 1, reference compound]
activity at 0.01 µM (GPR54 [2]): 94.7% | t1/2 [3]: 6.6 h | remaining at 72 h (MMP9; isolated matrix protease MMP9, read-out: amount retained after treatment with MMP9): ~50%

CC(C)C[C@H](/C=C/CNC(=O)[C@H](Cc1ccccc1)NC(=O)c1ccc(F)cc1)C(=O)N[C@@H](CCCN=C(N)N)C(=O)N[C@@H](Cc1c[nH]c2ccccc12)C(N)=O [Compound 19]
half-life [1]: 38 h | activity at 0.01 µM (GPR54 [2]): 97.6% | retention after treatment with MMP2 (MMP2): retained even after 48 hr with scarce decomposition | retention after treatment with MMP9 (MMP9): retained even after 72 hr with scarce decomposition

CC(C)C[C@H](NC(=O)CNC(=O)[C@H](Cc1ccccc1)NC(=O)[C@H](CO)NC(=O)[C@H](CC(N)=O)NC(=O)[C@H](Cc1c[nH]c2ccccc12)NC(=O)[C@H](CC(N)=O)NC(=O)[C@@H](N)Cc1ccc(O)cc1)C(=O)N[C@@H](CCCNC(=N)N)C(=O)N[C@@H](Cc1ccccc1)C(N)=O [Kisspeptin-10, reference compound]
QIC (GPR54 [4]; IC50 of compound divided by IC50 of kisspeptin-10): 1 | IC50 (GPR54 [4]; [125I]-Metastin 40-54 as labeled ligand, membrane fraction): 0.07 to 0.12 nM | QEC (GPR54 [2]; EC50 of compound divided by EC50 of kisspeptin-10): 1 | remaining at 48 h (MMP2; isolated matrix protease MMP2, read-out: amount retained after treatment with MMP2): ~65%

CC(C)CC(C[C@H](O)CNC(=O)[C@H](Cc1ccccc1)NC(=O)c1ccc(F)cc1)C(=O)N[C@@H](CCCNC(=N)N)C(=O)N[C@@H](Cc1c[nH]c2ccccc12)C(N)=O (single isomer, unassigned) [Compound 25b]
t1/2 [1]: 35 h | % Activity (GPR54 [2]): 95.6% | retention after treatment with MMP2 (MMP2): retained even after 48 hr with scarce decomposition | retention after treatment with MMP9 (MMP9): retained even after 72 hr with scarce decomposition
